Here are results for 6 compounds from article PMC9960633, “Novel Silver Complexes Based on Phosphanes and Ester Derivatives of Bis(pyrazol-1-yl)acetate Ligands Targeting TrxR: New Promising Chemotherapeutic Tools Relevant to SCLC Management” (International Journal of Molecular Sciences, 2023).

The subject of one assay is PSN-1. The assay is described as follows: MTT cytotoxicity, 2D culture, pancreatic carcinoma. The assay is classed as cell-based. Conditions: Homo sapiens, PSN1; PSN-1, 72 h, MTT test. The protocol:
(§1) The Ag(I) complexes 3–5 and the corresponding uncoordinated ligands 1 and 2 were evaluated for their cytotoxic activity against various human cancer cell lines representative of different solid tumors. In particular, the in-house cancer cell panel contained examples of human colon (HCT-15), pancreatic (PSN-1), cervical (A431), breast (MDA-MB-231) and ovarian (2008) carcinoma as well as of SCLC (U1285). For comparison purposes, the cytotoxicity of the reference metal-based chemotherapeutic drug cisplatin was assessed under the same experimental conditions.
(§2) Ag(I) complexes and the corresponding uncoordinated ligands were dissolved in DMSO just before the experiment, and a calculated amount of drug solution was added to the cell growth medium to a final solvent concentration of 0.5%, which had no detectable effects on cell viability. Cisplatin was dissolved in 0.9% sodium chloride solution. MTT (3-(4,5-dimethylthiazol-2-yl)-2,5-diphenyltetrazolium bromide) and cisplatin were obtained from Sigma Chemical Co, St. Louis, MO, USA.
(§3) Human SCLC (U1285), breast (MDA-MB-231), colon (HCT-15), and pancreatic (PSN-1) carcinoma cell lines were obtained by American Type Culture Collection (ATCC, Rockville, MD, USA). A431 are human cervical carcinoma cells kindly provided by Professor F. Zunino (Division of Experimental Oncology B, Istituto Nazionale dei Tumori, Milan, Italy). The 2008 cells and the cisplatin-resistant variant, C13* cells, are human ovarian adenocarcinoma cell lines that were kindly provided by Professor G. Marverti (Department of Biomedical Science of Modena University, Modena, Italy). Cell lines were maintained in the logarithmic phase at 37 °C in a 5% carbon dioxide atmosphere using the following culture media containing 10% fetal calf serum (EuroClone, Milan, Italy), antibiotics (50 units/mL penicillin and 50 μg/mL streptomycin) and 2 mM l-glutamine: (i) RPMI-1640 medium (EuroClone, Milan, Italy) for HCT-15, A431, PSN-1, U1285, 2008 and C13* cells; (ii) DMEM (EuroClone, Milan, Italy) for MDA-MB-231 cells.
The growth inhibitory effect toward tumor cells was evaluated by means of MTT assay. Briefly, 3–8 × 10^3 cells/well, dependent upon the growth characteristics of the cell line, were seeded in 96-well microplates in growth medium (100 μL). After 24 h, the medium was removed and replaced with a fresh one containing the compound to be studied at the appropriate concentration. Triplicate cultures were established for each treatment. […] After overnight incubation, cell growth inhibition was detected by measuring the absorbance of each well at 570 nm using a Bio-Rad 680 microplate reader. Mean absorbance for each drug dose was expressed as a percentage of the control untreated well absorbance and plotted vs. drug concentration. […]
(In general: Tetrazolium dyes change colour on reduction, which living cells bring about.)

A further assay deals with A431. The assay is described as follows: MTT cytotoxicity, 2D culture, cervical carcinoma. To be noted: A431, 72 h, MTT test. The assay is classed as cell-based, human. The protocol:
as §1, §2, §3
(§4) The growth inhibitory effect toward tumor cells was evaluated by means of MTT assay. Briefly, 3–8 × 10^3 cells/well, dependent upon the growth characteristics of the cell line, were seeded in 96-well microplates in growth medium (100 μL). After 24 h, the medium was removed and replaced with a fresh one containing the compound to be studied at the appropriate concentration. Triplicate cultures were established for each treatment. After 72 h, each well was treated with 10 μL of a 5 mg/mL MTT saline solution, and following 5 h of incubation, 100 μL of a sodium dodecyl sulfate (SDS) solution in HCl 0.01 M was added. After overnight incubation, cell growth inhibition was detected by measuring the absorbance of each well at 570 nm using a Bio-Rad 680 microplate reader. Mean absorbance for each drug dose was expressed as a percentage of the control untreated well absorbance and plotted vs. drug concentration. IC50 values, the drug concentrations that reduce the mean absorbance at 570 nm to 50% of those in the untreated control wells, were calculated by the four-parameter logistic (4-PL) model. Evaluation was based on means from at least four independent experiments.

Another assay has as its system HCT-15. The assay can be described thus: MTT cytotoxicity, 2D culture, colon carcinoma. It counts as cell-based, human. Conditions: HCT-15, 72 h, MTT test. The protocol: as §1, §2, §3, §4
For another assay, the system named is 2008. The assay is described as follows: MTT cytotoxicity, 2D culture, ovarian carcinoma. It counts as cell-based, human. Conditions: 2008, 72 h, MTT test. The protocol:
as §1, §2, §3, §4

The next assay deals with MDA-MB-231. The assay is described as follows: MTT cytotoxicity, 2D culture, breast carcinoma. It counts as cell-based, human. Conditions: MDA-MB-231, 72 h, MTT test. The protocol: as §1, §2, §3, §4
Another assay relates to U1285. The assay is described as follows: MTT cytotoxicity, 2D culture, SCLC. The assay is classed as cell-based, human. To be noted: U1285, 72 h, MTT test. As to the method: as §1, §2, §3, §4
The subject of a further assay is HEK293 cells. The assay is described as follows: MTT cytotoxicity, non-cancerous cells. The assay is classed as cell-based. Conditions: Homo sapiens, 72 h, MTT test. As to the method:
One of the main drawbacks of chemotherapeutic drugs is the possible toxic effect toward non-cancerous cells, and we measured the cytotoxicity of Ag(I) complexes against non-cancerous HEK293 cells (see Table 1). For all Ag(I) complexes, calculated IC50 values were higher than those obtained on average against tumor cells, thus indicating for this class of metal complexes a slightly preferential cytotoxicity against human cancer cells.
as §4

The test system of the next assay is C13* cells. The assay is described as follows: MTT cytotoxicity, cisplatin-resistant ovarian adenocarcinoma. It counts as cell-based, human. Conditions: 72 h, MTT test.
Source text: The antiproliferative activity of the Ag(I) complexes 3–5 was also investigated in an additional cell line selected for its resistance to cisplatin, the human ovarian adenocarcinoma C13* cells. These cells were suitably selected after a cisplatin chronic treatment and are characterized by several mechanisms accounting for their resistance to cisplatin; these include (i) a reduced intracellular drug accumulation, (ii) high cellular levels of glutathione and metallothioneins, (iii) the enhanced repair of platinum-DNA adducts, and (iv) an overexpression of the Trx system.
Cytotoxicity was assessed after 72 h of drug treatment by MTT test, and the IC50 and RF values (RF = resistance factor, defined as the ratio of the IC50 of resistant cells over the IC50 of sensitive ones) are reported in Table 1.
as §3, §4

Assay [1] concerns U1285 cancer cell spheroids. The assay can be described thus: 3D spheroid cytotoxicity, acid phosphatase (APH) assay. It counts as cell-based, human. To be noted: 72 h. The protocol: The in vitro antitumor activity of the newly developed Ag(I) derivatives was also assayed in 3D cell culture models of SCLC cells. Even if the 2D cell cultures are the most employed assays for in vitro screening due to the low cost, simplicity and reliability, two-dimensional methods are unable to reproduce the properties of in vivo solid tumors. In contrast, 3D cell cultures are much more efficient in closely mimicking the heterogeneity and complexity of the tumor mass and therefore are more predictive for in vivo results than conventional 2D cell cultures. On these bases, we tested the activity of the Ag(I) complexes on spheroids obtained from U1285 cells, which were proven to be highly sensitive to their in vitro antitumor activity. SCLC spheroids were treated with the investigated compounds for 72 h, and cell viability was assessed by means of the acid phosphatase (APH) assay.
Spheroids from U1285 cells (3 × 10^3 cells/well) were treated for 72 h with increasing concentrations of tested compounds. The growth inhibitory effect was evaluated by means of the APH assay. IC50 values were calculated from the dose–survival curves by the four-parameter logistic model (p < 0.05). S.D. = standard deviation.
Spheroid cultures were obtained by seeding 2.5 × 10^3 U1285 cancer cells/well in a round-bottom non-treated tissue culture 96-well plate (Greiner Bio-one, Kremsmünster, Austria) in phenol red free RPMI-1640 medium (Sigma Chemical Co., St. Louis, MO, USA) containing 10% fetal calf serum and supplemented with 20% methyl cellulose stock solution.
An APH modified assay was used for determining cell viability in 3D spheroids, as previously described. […] The inhibition of the cell growth induced by the tested complexes was detected by measuring the absorbance of each well at 405 nm, using a Bio-Rad 680 microplate reader. Mean absorbance for each drug dose was expressed as a percentage of the control untreated well absorbance (T/C) and plotted vs. drug concentration. […]

Another assay deals with T1, TrxR (Homo sapiens, UniProt Q16881).
T1 construct: hampering TrxR activity when tested in U1285 cell cultures; endogenous in cells; host or cells: U1285 human small-cell lung carcinoma cells
T1 sequence (Q16881 151-649 limits assumed): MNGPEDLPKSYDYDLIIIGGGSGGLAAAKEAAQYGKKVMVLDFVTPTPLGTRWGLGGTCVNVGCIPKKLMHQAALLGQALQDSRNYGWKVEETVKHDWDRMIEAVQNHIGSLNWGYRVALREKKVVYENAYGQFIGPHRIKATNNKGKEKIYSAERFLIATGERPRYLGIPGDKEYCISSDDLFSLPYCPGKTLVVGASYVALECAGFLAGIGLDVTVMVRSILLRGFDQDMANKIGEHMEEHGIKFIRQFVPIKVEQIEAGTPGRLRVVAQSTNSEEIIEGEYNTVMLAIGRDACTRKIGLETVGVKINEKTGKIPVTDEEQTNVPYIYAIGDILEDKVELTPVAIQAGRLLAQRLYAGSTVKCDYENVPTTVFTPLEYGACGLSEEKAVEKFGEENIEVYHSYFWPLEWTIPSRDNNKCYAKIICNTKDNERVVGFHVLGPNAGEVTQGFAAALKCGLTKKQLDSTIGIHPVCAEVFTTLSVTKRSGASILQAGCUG
The assay can be described thus: TrxR activity in treated U1285 cells. The assay is classed as cell-based. To be noted: 2 µM, 24 h. As to the method: On the other hand, Ag(I) compounds 4 and 5 were as effective or even better than auranofin in hampering TrxR activity when tested in U1285 cell cultures.
At the end of incubation time, cells were collected, washed with ice-cold PBS and centrifuged at […]. Each sample was then lysed with RIPA buffer modified as follows: 150 mM NaCl, 50 mM Tris–HCl, 1% Triton X-100, 1% SDS, 1% DOC, 1 mM NaF, 1 mM EDTA, and immediately before use, an anti-protease cocktail (Roche, Basel, Switzerland) containing PMSF was added. Samples were tested for TrxR activity as above described.
Figure 2 TrxR inhibition. (A) TrxR1 activity was assayed by measuring NADPH-dependent reduction of DTNB at 412 nm as described in the Experimental Section. (a) 50% inhibition concentration (IC50), Error bars indicate S.D. (B) U1285 cells were incubated for 24 h with the tested compounds (2 µM). Subsequently, cells were washed twice with PBS and lysed. TrxR activity was tested by measuring NADPH-dependent reduction of DTNB at 412 nm. Error bars indicate SD. * p < 0.05; ** p < 0.01.

SMILES strings stand for the structures.

What is called IC50 is the concentration that inhibits the measured activity by half. Read a high IC50 as weaker potency. Regarding `c1ccc(P(c2ccccc2)c2ccccc2)cc1` [PPh3, triphenylphosphine, reference compound], the IC50 in the assay on PSN-1 was > 50 µM; with A431 (Homo sapiens, A-431) it was 47.5 ± 1.1 µM; in the assay on HCT-15 (Homo sapiens) it was > 50 µM; with 2008 (Homo sapiens) it was > 50 µM; with MDA-MB-231 (Homo sapiens), > 50 µM; with U1285 (Homo sapiens) it was > 50 µM. The figures for the IC50 with HEK293 cells and in the assay with C13* cells (Homo sapiens) were > 100 µM and > 50 µM, respectively.

As for `N.N.[Cl][Pt][Cl]` [cisplatin, reference compound], the IC50 was 2.1 ± 0.9 µM with A431; 15.3 ± 2.6 µM in the assay on HCT-15; 2.2 ± 1 µM with 2008; 30.5 ± 2.6 µM in the assay with MDA-MB-231; 9.6 ± 1.2 µM in the assay with U1285; 65.4 ± 1.4 µM in assay [1]. This compound also returned an IC50 with C13* cells of 30.5 ± 2.6 µM.

Regarding `COC(=O)C(n1nc(C)cc1C)n1nc(C)cc1C` [ligand 2, [HC(pz^Me2)2COOCH3]], the IC50 in the assay with PSN-1 is > 50 µM; in the assay on A431 (Homo sapiens, A-431) it was > 50 µM; in the assay with HCT-15 (Homo sapiens) it was > 50 µM; with 2008 (Homo sapiens) it was > 50 µM; in the assay on MDA-MB-231 (Homo sapiens), > 50 µM; in the assay with U1285 (Homo sapiens), > 50 µM. Also, the half-inhibitory concentration (IC50) in the assay with HEK293 cells is > 50 µM; in [1] (Homo sapiens), > 100 µM; in the assay with C13* cells (Homo sapiens), > 50 µM.

Regarding `CC(=O)OC[C@H]1O[C@@H]([S-])[C@H](OC(C)=O)[C@@H](OC(C)=O)[C@@H]1OC(C)=O.CCP(CC)CC.[Au+]` [auranofin, reference compound], the “decrease of TrxR enzyme activity” value at TrxR is recorded as 62%.

On to `COC(=O)C(n1cccn1)n1cccn1` [ligand 1, [HC(pz)2COOCH3]], for which the IC50 with PSN-1 is > 50 µM; in the assay on A431 (Homo sapiens, A-431), > 50 µM; in the assay on HCT-15 (Homo sapiens), > 50 µM; in the assay with 2008 (Homo sapiens), > 50 µM; with MDA-MB-231 (Homo sapiens), > 50 µM; with U1285 (Homo sapiens), > 50 µM. For the same compound, the values for the IC50 (in the assay with HEK293 cells; in [1] (Homo sapiens); in the assay on C13* cells (Homo sapiens)) were > 50 µM, > 100 µM and > 50 µM, respectively.

Take `C1N2CN3CN1CP(C2)C3` [PTA, 1,3,5-triaza-7-phosphaadamantane, reference compound]: the IC50 is > 100 µM in the assay on PSN-1; > 100 µM in the assay with A431 (Homo sapiens, A-431); > 100 µM in the assay with HCT-15 (Homo sapiens); > 100 µM in the assay on 2008 (Homo sapiens); > 100 µM in the assay on MDA-MB-231 (Homo sapiens); > 100 µM in the assay with U1285 (Homo sapiens). Besides, the IC50 with HEK293 cells and in the assay with C13* cells (Homo sapiens) was > 100 µM each time.
